Earlier results on one compound are cited in patent publication US20130202654A1, “Topical Foam Composition” (priority 2009, published 2013).

Where two headings read alike, the source gives them in different places.

Experiment in series [1]: not given
The source holds these as a separate data set.

Experiment in series [2]: not given
The source holds these as a separate data set.

As a reminder, the Tmax is the time from dosing to the highest level. By half-life is commonly meant the time in which the quantity being followed falls by half. By Cmax is commonly meant the maximum level reached in the sampled fluid or tissue. Turning to `CO[C@H]1/C=C/O[C@@]2(C)Oc3c(C)c(O)c4c(O)c(c5c(nc6cc(C)ccn65)c4c3C2=O)NC(=O)/C(C)=C\C=C\[C@H](C)[C@H](O)[C@@H](C)[C@@H](O)[C@@H](C)[C@H](OC(C)=O)[C@@H]1C` [Rifaximin, (2S,16Z,18E,20S,21S,22R,23R,24R,25S,26S,27S,28E)-5,6,21,23,25-pentahydroxy-27-methoxy-2,4,11,16,20,22,24,26-octamethyl-2,7-(epoxypentadeca-[1,11,13]trienimino)benzofuro[4,5-e]pyrido[1,2-a]-benzimida-zole-1,15(2H)-dione,25-acetate], the “bound to plasma proteins” value was 67.5%. Besides, in series [1] (in vivo), the Tmax is 0.8 h and the half-life is 1.8 h. Further, the Cmax in series [1] (low systemic absorption) is 3.4 ng/mL. Also, the “solubility in alcohol, ethyl acetate, chloroform and toluene” value in series [2] (alcohol, ethyl acetate, chloroform, toluene) is “soluble”. For the same compound, the solubility in alcohols result in series [2] (alcohols) was “readily soluble”. In addition, in series [2], the solubility in water result is “water insoluble”. The solubility in water result in series [2] (listed as rifaximin) is reported as “virtually insoluble in water”.
